Data on 3 compounds can be found in patent publication US9630952B2, “Crystalline forms of afatinib di-maleate” (IVAX INTERNATIONAL GMBH, priority 2014, dated 2017).

Common to all, as to type: physicochemical
Data set [1] is described as follows: competitive slurry experiment comparing thermodynamic stabilities of forms A and Alpha. The text has this:
As discussed above, crystalline form Alpha of Afatinib di-maleate has some advantages. […] Pharmaceutical molecules may display solid to solid phase transformations, transformations between polymorphs or between unsolvated and solvated form, which may be detected by competitive slurry experiments.

Data set [2] can be described thus: polymorphic stability under mechanical stress. To be noted: exposed to mechanical stress (e.g. grinding, tabletting pressure); compared to Form A. From the text: As discussed above, crystalline form M of Afatinib di-maleate has advantages. […] As formulation processes often involve mechanical stress exerting technologies e.g. during grinding or under strong pressure in a tabletting machine, the polymorphic stability of API material is a desirable property.

A further data set is described as follows: wettability. To be noted: compared to form A. The text has this: As discussed above, crystalline form N of Afatinib di-maleate has some advantages. […] Wetting is the ability of a liquid (e.g. water) to maintain contact with a solid surface (e.g., API). It is a precursor to dissolution and so the wettability of a drug particle has a significant influence on the dissolution rates and the release characteristics in an oral pharmaceutical delivery. Wettability may also influence the interactions with other particles during formulation and manufacture. A polymorph with enhanced wettability ensures proper solubility measurement of the API per se and in formulation during dissolution experiments, i.e., better distribution of water and properly wetted sample.

With `CN(C)C/C=C/C(=O)Nc1cc2c(Nc3ccc(F)c(Cl)c3)ncnc2cc1O[C@H]1CCOC1` [Form Alpha, Afatinib di-maleate], the thermodynamic stability entry in data set [1] (concluded from competitive slurry in ethanol at room temperature, compared to form A) is “enhanced thermodynamic stability of form Alpha over form A”. Besides, in data set [1] (in ethanol at room temperature, after about 67 hours), the “solid form resulting from competitive slurry of forms A and Alpha” value was “pure form Alpha”. With `CN(C)C/C=C/C(=O)Nc1cc2c(Nc3ccc(F)c(Cl)c3)ncnc2cc1O[C@H]1CCOC1` [Form M, Afatinib di-maleate], in data set [2], the polymorphic stability entry is recorded as “enhanced polymorphic stability compared to Form A”. Turning to `CN(C)C/C=C/C(=O)Nc1cc2c(Nc3ccc(F)c(Cl)c3)ncnc2cc1O[C@H]1CCOC1` [Form N, Afatinib di-maleate], the wettability entry in “wettability” is recorded as “better wettability over form A”.
